The text below walks through data of ChEMBL document CHEMBL6071191, “Correlating Predicted Reactivities with Experimental Inhibition Data of Covalent ChlaDUB1 Inhibitors” (ACS Med Chem Lett, 2024).

For data set [1], the target named is T1, Deubiquitinase and deneddylase Dub1 (Chlamydia trachomatis serovar L2 (strain ATCC VR-902B / DSM 19102 /434/Bu)) (UniProt B0B9A0).
T1 sequence (whole entry): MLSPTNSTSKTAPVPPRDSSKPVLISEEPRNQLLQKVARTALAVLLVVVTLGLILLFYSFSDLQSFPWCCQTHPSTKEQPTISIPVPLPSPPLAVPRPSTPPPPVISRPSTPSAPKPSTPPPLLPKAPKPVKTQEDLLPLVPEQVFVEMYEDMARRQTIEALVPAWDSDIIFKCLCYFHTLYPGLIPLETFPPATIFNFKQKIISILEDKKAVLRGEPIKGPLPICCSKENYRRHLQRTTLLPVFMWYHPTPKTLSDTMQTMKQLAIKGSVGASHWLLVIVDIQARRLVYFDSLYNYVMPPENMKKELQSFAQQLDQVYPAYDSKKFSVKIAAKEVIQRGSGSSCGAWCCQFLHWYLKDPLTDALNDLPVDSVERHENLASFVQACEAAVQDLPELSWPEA
The data set is described as follows: Binding affinity to Chlamydia trachomatis DUB1 using Ub-Rh110Gly as substrate assessed as ratio of Kinact/Ki.

A short description of data set [2]: Drug metabolism in PBS assessed as pseudo-first-order rate constant of Cysteine at 50 uM incubated for >10 hrs in presence of L-Cysteine by HPLC-UV analysis. In kind it is ADME. Conditions: buffer.

`COc1ccccc1CNC(=O)c1ccc(CNC(=O)c2coc(C#N)n2)cc1`: the Ratio in data set [1] was found to be 137 M⁻¹ s⁻¹.

Turning to `COc1ccccc1CNC(=O)c1ccc(CNC(=O)[C@@H]2CCN(C#N)C2)cc1`, the Ratio in data set [1] is 0.761 M⁻¹ s⁻¹. Further, in data set [2], the K came to 0.824 h⁻¹.

`COc1ccccc1CNC(=O)c1ccc(CNC(=O)[C@H]2CCN(C#N)C2)cc1`: in data set [1], the Ratio was 1.1 M⁻¹ s⁻¹. Besides, the K in data set [2] turned out to be 0.87 h⁻¹.

As for `COc1ccccc1CNC(=O)c1ccc(CNC(=O)c2nc(C#N)ncc2F)cc1`, the Ratio in data set [1] is 32.2 M⁻¹ s⁻¹.

As for `COc1ccccc1CNC(=O)c1ccc(CNC(=O)C2CCN(C#N)CC2)cc1`, the K in data set [2] stood at 0.151 h⁻¹.

For `N#Cc1nccc(C(=O)NCc2ccc(C(=O)NCc3ccccc3)cc2)n1`, the Ratio in data set [1] amounted to 10.7 M⁻¹ s⁻¹.

Take `COc1ccccc1CNC(=O)c1ccc(CNS(=O)(=O)c2cnc(C#N)nc2)cc1`: the Ratio in data set [1] was found to be 15.6 M⁻¹ s⁻¹.
